16 molecules from patent US10463651B2, “3-(1H-pyrrolo[3,2-C]pyridin-2-YL)-1H-indazoles and therapeutic uses thereof” (Samumed, LLC, priority 2015, dated 2019) can be followed below.

What all share (assay type): cell-based
Assay [1] relates to Wnt activity (Sp5-Luc reporter, SW480 colon carcinoma cells). Description: Screening assay for Wnt activity (Sp5-Luc reporter gene assay in SW480 cells). The conditions noted are these: Homo sapiens; for EC50: Sp5-Luc reporter, SW480 cells, incubated overnight; for inhibition at 10 µM: SW480, read-out: percent inhibition at 10 μM. The text has this:
The screening assay for Wnt activity is described as follows. Reporter cell lines can be generated by stably transducing cancer cell lines (e.g., colon cancer) or primary cells (e.g., IEC-6 intestinal cells) with a lentiviral construct that includes a Wnt-responsive promoter driving expression of the firefly luciferase gene.
SW480 colon carcinoma cells were transduced with a lentiviral vector expressing luciferase with a human Sp5 promoter consisting of a sequence of eight TCF/LEF binding sites. SW480 cells stably expressing the Sp5-Luc reporter gene and a hygromycin resistance gene were selected by treatment with 150 μg/mL of hygromycin for 7 days. These stably transduced SW480 cells were expanded in cell culture and used for all further screening activities. […] For Sp5-Luc reporter gene assays, the cells were plated at 4,000 cells/well in 384-well plates with medium containing 1% fetal bovine serum and incubated overnight at 37° C. and 5% CO2. Following incubation, 20 μl of BrightGlo luminescence reagent (Promega) was added to each well of the 384-well assay plates. The plates were placed on an orbital shaker for 2 min and then luminescence was quantified using the Envision (Perkin Elmer) plate reader. Readings were normalized to DMSO only treated cells, and normalized activities were utilized for EC50 calculations using the dose-response log (inhibitor) vs. response-variable slope (four parameters) nonlinear regression feature available in GraphPad Prism 5.0 (or Dotmatics).

The subject of assay [2] is primary human fibroblasts derived from IPF patients (LL29 cells) treated with TGF-β1. Description: Inhibition of the fibrotic process (αSMA staining) in TGF-β1-treated fibroblasts. The conditions noted are these: Fibroblast, 96 h; for EC50: % αSMA-positive LL29 cells, TGF-β1 20 ng/mL, 4 days; for inhibition at 10 µM: read-out: percent inhibition at 10 μM. Here is the method:
Representative compounds were screened using primary human fibroblasts (derived from IPF patients) treated with TGF-β1 to determine their ability to inhibit the fibrotic process.
LL29 cells are plated at 1,500 cells/well in 80 μL/well F12 medium supplemented with 1% Fetal Bovine Serum. […] Wells treated with TGF-P1 and containing DMSO were used as controls. […] Following incubation for 4 days, SYTOX green nucleic acid stain (Life Technologies [Thermo Fisher Scientific]) was added to the wells at a final concentration of 1 μM and incubated at room temperature for 30 min.

In assay [3] the test system is SW480 colon cancer cells. Description: Cell viability assay (CellTiter-Blue). The following applies: Homo sapiens, 96 h; SW480 cell viability, four days, CellTiter-Blue. How it is done: Representative compounds were screened using the following assay procedure to assess the effect on cell viability as described below.
Approximately 2×10^3 SW480 colon cancer cells were seeded into each well and allowed to incubate in the presence or absence of compound for four days at 37° C./5% CO2. Eight replicates of DMSO-treated cells served as controls and cells treated with compound were performed in duplicate.
After incubation, 20 μL of CellTiter-Blue (Promega) was added to each well allowed to incubate for approximately 3 hours. This reagent was a buffered solution which contains resazurin, metabolically active cells were able to reduce rezarurin (blue) into resorufin (pink) which was highly fluorescent. This measured fluorescence was used as a readout for cell viability.

In assay [4] the test system is IL-6 (THP-1 cells). Description: IL-6 inhibition in LPS-stimulated THP-1 cells (HTRF). The following applies: Homo sapiens; for EC50: IL6 by HTRF, THP-1 cells, 500 ng/mL LPS, 22 hours; for inhibition at 10 µM: THP-1, read-out: percent inhibition at 10 M. Here is the method:
THP-1 cells were cultured in basal media with 1% FBS for 24 hours before the start of the assay. […] THP-1 cells were plated at 5000 cells/well in the 384-well plates and incubated at 37° C. for 2 h. 500 ng/mL of LPS was added after 2 hours and cells were incubated for another 22 hours at 37° C. Plates were spun in a centrifuge for 1 minute at […] and a mixture of anti-IL6 XL665, and anti-IL6 Cryptate diluted in reconstitution buffer (Cisbio Inc.) was added to each well. Following incubation for 3 hrs at room temperature, Homogeneous Time-Resolved Fluorescence (HTRF) was measured using the Envision (Perkin Elmer) at 665 nm and […]. The ratio of fluorescence at 665 nm to 620 nm was used as a readout for IL6 quantification. All samples were processed in duplicate. Readings were normalized to DMSO treated cells and normalized activities were utilized for EC50 calculations using the dose-response log (inhibitor) vs. response-variable slope (four parameters) nonlinear regression feature available in GraphPad Prism 5.0 (or Dotmatics).

On to `CC(C)CC(=O)Nc1cncc(-c2ccc3[nH]nc(-c4cc5c(N6CCN(C)CC6)nccc5[nH]4)c3c2)c1` [Compound 226, 3-Methyl-N-(5-(3-(4-(4-methylpiperazin-1-yl)-1H-pyrrolo[3,2-c]pyridin-2-yl)-1H-indazol-5-yl)pyridin-3-yl)butanamide], for which the EC50 in assay [1] turned out to be 1900 nM; in assay [2] it was 2960 nM; in assay [3], 2870 nM; in assay [4], 1420 nM.

As for `CN1CCN(c2nccc3[nH]c(-c4n[nH]c5ccc(-c6ccccn6)cc45)cc23)CC1` [Compound 252, 3-(4-(4-Methylpiperazin-1-yl)-1H-pyrrolo[3,2-c]pyridin-2-yl)-5-(pyridin-2-yl)-1H-indazole], the inhibition at 10 µM in assay [1] was found to be 18.8%. Also, the EC50 in assay [1] is greater than 10000 nM; in assay [2], 1460 nM; in assay [3], 4690 nM; in assay [4] it was 2750 nM.

`Fc1cccc(-c2nccc3[nH]c(-c4n[nH]c5ccc(C6CCNCC6)cc45)cc23)c1` [Compound 505, 3-(4-(3-Fluorophenyl)-1H-pyrrolo[3,2-c]pyridin-2-yl)-5-(piperidin-4-yl)-1H-indazole]: the EC50 in assay [1] is 3590 nM; in assay [2], 3320 nM; in assay [3], 3840 nM; in assay [4], 723 nM.

On to `Fc1cccc(-c2nccc3[nH]c(-c4n[nH]c5ccc(-c6ccccn6)cc45)cc23)c1` [Compound 28, 3-(4-(3-Fluorophenyl)-1H-pyrrolo[3,2-c]pyridin-2-yl)-5-(pyridin-2-yl)-1H-indazole], for which the EC50 is 1080 nM in assay [1], 421 nM in assay [2], 576 nM in assay [3] and 3090 nM in assay [4].

On to `CN(C)c1cncc(-c2ccc3[nH]nc(-c4cc5c(-c6cccnc6)nccc5[nH]4)c3c2)c1` [Compound 91, N,N-Dimethyl-5-(3-(4-(pyridin-3-yl)-1H-pyrrolo[3,2-c]pyridin-2-yl)-1H-indazol-5-yl)pyridin-3-amine], for which the inhibition at 10 µM in assay [1] was 35.7%; in assay [2], 46.9%. Further, the EC50 in assay [1] was greater than 10000 nM; in assay [2] it was greater than 10000 nM; in assay [3] it was 8080 nM; in assay [4], 331 nM.

For the molecule `Cn1cc(-c2ccc3[nH]nc(-c4cc5c(-c6cccnc6)nccc5[nH]4)c3c2)cn1` [Compound 556, 5-(1-Methyl-1H-pyrazol-4-yl)-3-(4-(pyridin-3-yl)-1H-pyrrolo[3,2-c]pyridin-2-yl)-1H-indazole], the EC50 in assay [1] turned out to be 59 nM; in assay [2], 29 nM; in assay [3], 448 nM; in assay [4], 90 nM.

For the molecule `Fc1ccc(-c2nccc3[nH]c(-c4n[nH]c5ccc(C6=CCNCC6)cc45)cc23)cc1` [Compound 522, 3-(4-(4-Fluorophenyl)-1H-pyrrolo[3,2-c]pyridin-2-yl)-5-(1,2,3,6-tetrahydropyridin-4-yl)-1H-indazole], the 50% effective concentration (EC50) in assay [1] is 3780 nM; in assay [2] it was 1430 nM; in assay [3], 2170 nM; in assay [4] it was greater than 10000 nM. Further, in assay [4], the inhibition at 10 µM was determined as 4.1%.

In the case of `CS(=O)(=O)NCc1cc(F)cc(-c2nccc3[nH]c(-c4n[nH]c5ccc(-c6cncc(OCc7ccccc7)c6)cc45)cc23)c1` [Compound 774, N-(3-(2-(5-(5-(Benzyloxy)pyridin-3-yl)-1H-indazol-3-yl)-1H-pyrrolo[3,2-c]pyridin-4-yl)-5-fluorobenzyl)methanesulfonamide], the EC50 was 1010 nM in assay [1], 2300 nM in assay [2], 941 nM in assay [3] and greater than 10000 nM in assay [4]. Also, the inhibition at 10 µM in assay [4] is 42.4%.

Turning to `O=C(Nc1cncc(-c2ccc3[nH]nc(-c4cc5c(-c6cccc(F)c6)nccc5[nH]4)c3c2)c1)C1CCCCC1` [Compound 23, N-(5-(3-(4-(3-Fluorophenyl)-1H-pyrrolo[3,2-c]pyridin-2-yl)-1H-indazol-5-yl)pyridin-3-yl)cyclohexanecarboxamide], the EC50 in assay [1] turned out to be 1400 nM; in assay [2] it was 1460 nM; in assay [3], 1140 nM; in assay [4], 108 nM.

For `Fc1ccccc1-c1nccc2[nH]c(-c3n[nH]c4ccc(-c5cncc(OC6CCNCC6)c5)cc34)cc12` [Compound 544, 3-(4-(2-Fluorophenyl)-1H-pyrrolo[3,2-c]pyridin-2-yl)-5-(5-(piperidin-4-yloxy)pyridin-3-yl)-1H-indazole], the EC50 in assay [1] was 2340 nM; in assay [2], greater than 10000 nM; in assay [3], 2620 nM; in assay [4], 2490 nM. Also, the inhibition at 10 µM in assay [2] came to 0%.

With `c1cc(-c2ccc3[nH]nc(-c4cc5c(N6CCCCC6)nccc5[nH]4)c3c2)ccn1` [Compound 186, 3-(4-(Piperidin-1-yl)-1H-pyrrolo[3,2-c]pyridin-2-yl)-5-(pyridin-4-yl)-1H-indazole], the half-maximal effective concentration (EC50) in assay [1] was 2100 nM; in assay [2], 832 nM; in assay [3], 1020 nM; in assay [4], greater than 10000 nM. Besides, in assay [4], the inhibition at 10 µM is 53.9%.

Turning to `CCCC(=O)Nc1cncc(-c2ccc3[nH]nc(-c4cc5cnccc5[nH]4)c3c2)c1` [Compound 269, N-(5-(3-(1H-Pyrrolo[3,2-c]pyridin-2-yl)-1H-indazol-5-yl)pyridin-3-yl) butyramide], the concentration giving a half-maximal response (EC50) in assay [1] is 105 nM; in assay [2] it was 149 nM; in assay [3] it was 455 nM; in assay [4], 154 nM.

For the molecule `CC(C)CC(=O)Nc1cncc(-c2ccc3[nH]nc(-c4cc5c(-c6cc(F)cc(CNS(C)(=O)=O)c6)nccc5[nH]4)c3c2)c1` [Compound 478, N-(5-(3-(4-(3-Fluoro-5-(methylsulfonamidomethyl)phenyl)-1H-pyrrolo[3,2-c]pyridin-2-yl)-1H-indazol-5-yl)pyridin-3-yl)-3-methylbutanamide], the EC50 worked out at 581 nM in assay [1], 2370 nM in assay [2], 1070 nM in assay [3] and 115 nM in assay [4].

Regarding `c1cc2[nH]c(-c3n[nH]c4ccc(-c5cncc(OC6CCCCC6)c5)cc34)cc2c(N2CCCCC2)n1` [Compound 607, 5-(5-(Cyclohexyloxy)pyridin-3-yl)-3-(4-(piperidin-1-yl)-1H-pyrrolo[3,2-c]pyridin-2-yl)-1H-indazole], the EC50 amounted to 1140 nM in assay [1], 487 nM in assay [2], 1500 nM in assay [3] and 1050 nM in assay [4].

Take `CS(=O)(=O)NCc1cc(F)cc(-c2nccc3[nH]c(-c4n[nH]c5ccc(-c6cncc(NC(=O)C7CCCC7)c6)cc45)cc23)c1` [Compound 498, N-(5-(3-(4-(3-Fluoro-5-(methylsulfonamidomethyl)phenyl)-1H-pyrrolo[3,2-c]pyridin-2-yl)-1H-indazol-5-yl)pyridin-3-yl)cyclopentanecarboxamide]: the half-maximal effective concentration (EC50) in assay [1] worked out at 741 nM; in assay [2] it was 3500 nM; in assay [3], 1140 nM; in assay [4], 103 nM.

With `CC(C)(C)C(=O)Nc1cncc(-c2ccc3[nH]nc(-c4cc5c(-c6ccc(F)cc6)nccc5[nH]4)c3c2)c1` [Compound 36, N-(5-(3-(4-(4-Fluorophenyl)-1H-pyrrolo[3,2-c]pyridin-2-yl)-1H-indazol-5-yl)pyridin-3-yl)pivalamide], the EC50 turned out to be 742 nM in assay [1], 745 nM in assay [2], 659 nM in assay [3] and 207 nM in assay [4].
